US9883675B2, “Method for controlling pests” (SUMITOMO CHEMICAL COMPANY, LIMITED, priority 2013, dated 2018)

System: Diamondback moth (Plutella xylostella)
Assay: Test Example 1: Japanese radish seed treatment, mortality of Diamondback moth larvae
Format: in vivo
Conditions: 48 h, average of two replications; for mortality at 0.01 mg: dose 0.01 mg/1 grain of seed; for mortality at 0.2 mg: dose 0.2 mg/1 grain of seed
Method: Each of the present fused heterocyclic compounds 3, 4, 5, 9, 15, 16, 17, 18, 19, 20, 22, 25, 72, 74, 85, 130, 399, 409, 414, 419, 443, 444, 445, 464 and 467 was dissolved in acetone (available from Wako Pure Chemical Industries, Ltd.) containing 5% (W/V) SOLGEN TW-20 (available from Daiichi-Kogyo Seiyaku Co. Ltd.) so as to give a prescribed concentration, and to prepare the testing solution.
Nine (9) grains of the Japanese raddish (Raphanus sativas var. longipinnatus) were placed in a 2 ml volume polypropylene microtube (manufactured by As One Co.) and thereto was added 18 μl of the above testing solution and the seeds in the microtube were shaken and stirred on Stirrer (Trade name: VORTEX-GENIE2, manufactured by Scientific Industries, Inc.). After the testing solution was spread uniformly to the whole seed, the seeds were allowed to air dry.
To a 90 ml volume of plastic cup filled with ten (10) g of culture soil (Trade name: Aisai No. 1; available from Katakura Chikkarin Co., Ltd.) was added water (5 ml) and thereto was seeded three (3) grains of the above seeds.
At four days after the seeding, Diamondback moth (Plutella xylostella) at the third instar larval stages were released in a ratio of 10 (ten) heads of insects per the cup, and then the cups were covered with nylon gauze and covered with a lid (hereinafter, referred to as “treated group”).
On the other hand, Japanese raddish was seeded by the similar procedures to the treated group except that the present fused heterocyclic compound was not dissolved in acetone (available from Wako Pure Chemical Industries, Ltd.) containing 5% (W/V) SOLGEN TW-20 (available from Daiichi-Kogyo Seiyaku Co. Ltd.), and the larvae were released, and the cups were covered with a lid (hereinafter, referred to as “Untreated group”).
At two days after the release, the surviving and death of the larvae were observed and on basis of the results of the observation, the mortalities of both groups were calculated by the following equation 1), respectively. Two replication tests were performed on each group. The average value is shown below. Mortality (%)=(Total number of […])/Total number of Tested insects×100 Equation 1)

[1] = Diamondback moth third instar larvae released 4 days after seeding, observed 2 days after release
[2] = third instar larvae released four days after seeding, observed two days after release

CCS(=O)(=O)c1cccnc1-c1nc2cc([S+]([O-])C(F)(F)F)cnc2n1C (stereo not drawn) [Present fused heterocyclic compound 20, 2-(3-ethylsulfonyl-pyridin-2-yl)-3-methyl-6-trifluoromethylsulfinyl-3H-imidazo[4,5-b]pyridine]
mortality at 0.01 mg [1]: 100% | mortality at 0.2 mg [1]: 100%

CCS(=O)(=O)c1cc(C(OC)(OC)OC)cnc1-c1nc2cc(C(F)(F)C(F)(F)F)cnc2n1C [Present fused heterocyclic compound 414, 2-(3-ethylsulfonyl-5-trimethoxymethyl-pyridin-2-yl)-3-methyl-6-pentafluoroethyl-3H-imidazo[4,5-b]pyridine]
mortality at 0.01 mg [1]: 95% | mortality at 0.2 mg [1]: 100%

CCS(=O)(=O)c1cccnc1-c1nc2cc(C(F)(F)F)ccc2o1 [Present fused heterocyclic compound 85, 2-(3-Ethylsulfonylpyridin-2-yl)-5-trifluoromethyl-benzoxazole]
mortality at 0.01 mg [1]: 90% | mortality at 0.2 mg [1]: 95%

CCS(=O)(=O)c1cccnc1-c1nc2cc(C(F)(F)C(F)(F)F)cnc2o1 [Present fused heterocyclic compound 464, 2-(3-Ethylsulfonylpyridin-2-yl)-6-pentafluoroethyl-oxazolo[5,4-b]pyridine]
mortality at 0.01 mg [1]: 100% | mortality at 0.2 mg [1]: 100%

CCSc1cc(C(F)(F)F)cnc1-c1nc2cc(C(F)(F)F)cnc2n1C [Present fused heterocyclic compound 4, 2-(3-ethylsulfanyl-5-trifluoromethylpyridin-2-yl)-3-methyl-6-trifluoromethyl-3H-imidazo[4,5-b]pyridine]
mortality at 0.01 mg [1]: 100% | mortality at 0.2 mg [1]: 100%

CCS(=O)(=O)c1cccnc1-c1nc2cc([S+]([O-])C(F)(F)F)ccc2o1 (stereo not drawn) [Present fused heterocyclic compound 444, 2-(3-ethylsulfonylpyridin-2-yl)-5-(trifluoromethylsulfinyl)benzoxazole]
mortality at 0.01 mg [1]: 100% | mortality at 0.2 mg [1]: 100%

CCS(=O)(=O)c1cccnc1-c1nc2cc(SC(F)(F)F)cnc2n1C [Present fused heterocyclic compound 15, 2-(3-ethylsulfonyl-pyridin-2-yl)-3-methyl-6-trifluoromethylsulfanyl-3H-imidazo[4,5-b]pyridine]
mortality at 0.01 mg [1]: 100% | mortality at 0.2 mg [1]: 100%

CCS(=O)(=O)c1cccnc1-c1nc2cc(C(F)(F)C(F)(F)F)ccc2o1 [Present fused heterocyclic compound 467, 2-(3-Ethylsulfonylpyridin-2-yl)-5-pentafluoroethyl-benzoxazole]
mortality at 0.01 mg [2]: 100% | mortality at 0.2 mg [2]: 100%

CCS(=O)(=O)c1cc(C(F)(F)F)cnc1-c1nc2cc(C(F)(F)C(F)(F)F)cnc2n1C [Present fused heterocyclic compound 19, 2-(3-ethylsulfonyl-5-trifluoromethyl-pyridin-2-yl)-3-methyl-6-pentafluoroethyl-3H-imidazo[4,5-b]pyridine]
mortality at 0.01 mg [1]: 100% | mortality at 0.2 mg [1]: 100%

CCSc1cccnc1-c1nc2cc(I)cnc2n1C [Present fused heterocyclic compound 9, 2-(3-ethylsulfanyl-pyridin-2-yl)-6-iodo-3-methyl-3H-imidazo[4,5-b]pyridine]
mortality at 0.01 mg [1]: 100% | mortality at 0.2 mg [1]: 100%

CCS(=O)(=O)c1cccnc1-c1nc2cc(C(F)(F)F)cc(C#N)c2n1C [Present fused heterocyclic compound 130, 7-Cyano-2-(3-ethylsulfonylpyridin-2-yl)-1-methyl-5-trifluoromethyl-1H-benzimidazole]
mortality at 0.01 mg [1]: 100% | mortality at 0.2 mg [1]: 80%

CCS(=O)(=O)c1cc(C(F)(F)F)cnc1-c1nc2cc(S(=O)(=O)C(F)(F)F)cnc2n1C [Present fused heterocyclic compound 25, 2-(3-Ethylsulfonyl-5-trifluoromethyl-pyridin-2-yl)-3-methyl-6-trifluoromethylsulfonyl-3H-imidazo[4,5-b]pyridine]
mortality at 0.01 mg [1]: 100% | mortality at 0.2 mg [1]: 100%

Cn1c(-c2ncc(C(F)(F)F)cc2S(C)(=O)=O)nc2cc(C(F)(F)C(F)(F)F)cnc21 [Present fused heterocyclic compound 419, 2-(3-Methylsulfonyl-5-trifluoromethylpyridin-2-yl)-3-methyl-6-pentafluoroethyl-3H-imidazo[4,5-b]pyridine]
mortality at 0.01 mg [1]: 100% | mortality at 0.2 mg [1]: 100%

CCS(=O)(=O)c1cccnc1-c1nc2cc(C(F)(F)F)c[n+]([O-])c2s1 [Present fused heterocyclic compound 22, 2-(3-ethylsulfonyl-2-yl)-6-(trifluoromethyl)thiazolo[5,4-b]pyridine 4-oxide]
mortality at 0.01 mg [1]: 100% | mortality at 0.2 mg [1]: 100%

CCS(=O)(=O)c1cc(C(F)(F)C(F)(F)F)cnc1-c1nc2cc(C(F)(F)C(F)(F)F)cnc2n1C [Present fused heterocyclic compound 74, 2-(3-ethylsulfonyl-5-pentafluoroethylpyridin-2-yl)-3-methyl-6-pentafluoroethyl-3H-imidazo[4,5-b]pyridine]
mortality at 0.01 mg [1]: 100% | mortality at 0.2 mg [1]: 100%

CCS(=O)(=O)c1cccnc1-c1nc2cc(S(=O)(=O)C(F)(F)F)cnc2n1C [Present fused heterocyclic compound 16, 2-(3-ethylsulfonyl-pyridin-2-yl)-3-methyl-6-trifluoromethylsulfonyl-3H-imidazo[4,5-b]pyridine]
mortality at 0.01 mg [1]: 100% | mortality at 0.2 mg [1]: 100%

CCSc1cc(C(F)(F)F)cnc1-c1nc2cc(C(F)(F)C(F)(F)F)cnc2n1C [Present fused heterocyclic compound 17, 2-(3-Ethylsulfanyl-5-trifluoromethyl-pyridin-2-yl)-3-methyl-6-pentafluoroethyl-3H-imidazo[4,5-b]pyridine]
mortality at 0.01 mg [1]: 100% | mortality at 0.2 mg [1]: 100%

CC[S+]([O-])c1cc(C(F)(F)F)cnc1-c1nc2cc(C(F)(F)C(F)(F)F)cnc2n1C (stereo not drawn) [Present fused heterocyclic compound 18, 2-(3-Ethylsulfinyl-5-trifluoromethyl-pyridin-2-yl)-3-methyl-6-pentafluoroethyl-3H-imidazo[4,5-b]pyridine]
mortality at 0.01 mg [1]: 100% | mortality at 0.2 mg [1]: 100%

CCS(=O)(=O)c1cccnc1-c1nc2cc(C(F)(F)F)cnc2n1C [Present fused heterocyclic compound 3, 2-(3-ethylsulfonylpyridin-2-yl)-3-methyl-6-trifluoromethyl-3H-imidazo[4,5-b]pyridine]
mortality at 0.01 mg [1]: 100% | mortality at 0.2 mg [1]: 100%

CCS(=O)(=O)c1cc(C(F)(F)C(F)(F)F)cnc1-c1nc2cc(C(F)(F)F)cnc2n1C [Present fused heterocyclic compound 72, 2-(3-ethylsulfonyl-5-pentafluoroethylpyridin-2-yl)-3-methyl-6-trifluoromethyl-3H-imidazo[4,5-b]pyridine]
mortality at 0.01 mg [1]: 100% | mortality at 0.2 mg [1]: 100%

CCS(=O)(=O)c1cc(C(F)(F)F)cnc1-c1nc2cc(C(F)(F)C(F)(F)F)c[n+]([O-])c2n1C [Present fused heterocyclic compound 409, 2-(3-ethylsulfonyl-5-trifluoromethyl-pyridin-2-yl)-3-methyl-6-pentafluoroethyl-3H-imidazo[4,5-b]pyridine 4-oxide]
mortality at 0.01 mg [1]: 100% | mortality at 0.2 mg [1]: 100%

CCS(=O)(=O)c1cccnc1-c1nc2cc(SC(F)(F)F)ccc2o1 [Present fused heterocyclic compound 443, 2-(3-ethylsulfonylpyridin-2-yl)-5-(trifluoromethylsulfanyl)benzoxazole]
mortality at 0.01 mg [1]: 100% | mortality at 0.2 mg [1]: 100%

CCS(=O)(=O)c1cc(C(F)(F)F)cnc1-c1nc2cc(C(F)(F)F)c(C#N)nc2n1C [Present fused heterocyclic compound 399, 5-cyano-2-(3-ethylsulfonyl-5-trifluoromethylpyridin-2-yl)-3-methyl-6-trifluoromethyl-3H-imidazo[4,5-b]pyridine]
mortality at 0.01 mg [1]: 90% | mortality at 0.2 mg [1]: 95%

CCS(=O)(=O)c1cccnc1-c1nc2cc(S(=O)(=O)C(F)(F)F)ccc2o1 [Present fused heterocyclic compound 445, 2-(3-ethylsulfonylpyridin-2-yl)-5-(trifluoromethylsulfonyl)benzoxazole]
mortality at 0.01 mg [1]: 100% | mortality at 0.2 mg [1]: 100%
